Test results as given in patent publication US5449814A, “Lignan analogues, methods of preparation thereof and anti-hyperlipemic agents” (Shionogi & Co., Ltd., priority 1991, dated 1995).
Like-named read-outs stand apart in the source and are kept apart here.

Legend:
[1] = tested on: cholesterol in serum; test: Hypocholesterolemic effect in cholesterol-fed mice; type: in vivo, Male ICR mice; settings: Mus musculus, po, 168 h, diet 1% cholesterol and 0.5% sodium cholate with 0.12% test compound, 7 days
Method: Hypocholesterolemic effect
Male ICR mice weighing 30 to 40 g were allowed to access to a diet containing 1% cholesterol and 0.5% sodium cholate supplemented with 0.12% of a test compound (no test compound in control group) ad libitum for 7 days. Then, the blood was taken and total cholesterol in serum was determined by the method of Allain (Clin. Chem., Vol. 20, 470 (1974)).
Total amount of VLDL cholesterol and LDL cholesterol was obtained by subtracting HLD cholesterol from total cholesterol. HLD cholesterol was quantified by the method of Ash and Hentschel et al. (Clin. Chem., Vol. 24, 2180 (1978)).
Hypocholesterolemic effect of a test compound was evaluated based on % reduction in cholesterol calculated using the equation shown below.

[2] = tested on: LDL; test: Inhibitory effect on oxidative modification of LDL (copper-induced, TBA reactive substances); type: biochemical, New Zealand albino rabbits; settings: rabbit LDL 0.2 mg protein/ml, 0.5 μM Cu^2+, 37° C., 24 hours; read-out: Inhibition of LDL oxidation IC50
Method: Inhibitory effect on oxidative modification of LDL
According to the method by Kita et al. (Proc. Natl. Acad. Sci., U.S.A, Vol. 84, 5928 (1987)), the experiment was proceeded as follows.
LDL was isolated from the blood of New Zealand albino rabbits fed with a diet containing 0.5% cholesterol for 3 weeks, and dissolved in phosphate-buffered physiological saline (final LDL concentration: 0.2 mg protein/ml). To this solution, each test compound in ethanol was added and then copper sulfate (final Cu^2+ concentration: 0.5 μM) was added thereto. The mixture was incubated at 37° C. for 24 hours.
After incubation, the content of lipid peroxides in each solution was determined as thiobarbituric acid reactive substances (TBA reactive substances). Concentration for 50% inhibition (IC50) was obtained from a linear regression curve of concentration of a compound versus % inhibition of oxidative modification of LDL. To quantify TBA reactive substances, proteins were removed from the solution after incubation, and the supernatant was examined for the content of TBA reactive substances by TBA method.

[3] = serum, read-out: Total Chol. reduction (%)
[4] = total minus HDL cholesterol, read-out: (VLDL + LDL) Chol. reduction (%)

IC50 [2]	SMILES	inhibition in vivo at 0.12 % in diet [1, 3]	inhibition in vivo at 0.12 % in diet [1, 4]
0.46 µM	COC(=O)c1c(C(=O)C2CCCCC2)c(O)c2cc(OC)c(OC)c(OC)c2c1-c1ccc(OC)c(OC)c1 [Example 5, 3-Cyclohexanoyl-1-(3,4-dimethoxyphenyl)-4-hydroxy-2-methoxycarbonyl-6,7,8-trimethoxynaphthalene]	22%	61%
0.65 µM	CCC(CC)C(=O)c1c(C(=O)OC)c(-c2ccc(OC)c(OC)c2)c2c(OC)c(OC)c(OC)cc2c1O [Example 4, 1-(3,4-Dimethoxyphenyl)-3-(2-ethyl-1-oxobutyl)-4-hydroxy-2-methoxycarbonyl-6,7,8-trimethoxynaphthalene]	28%	78%
0.98 µM	COC(=O)c1c(C(=O)c2ccc(OC)c(OC)c2)c(O)c2cc(OC)c(OC)c(OC)c2c1-c1ccc(OC)c(OC)c1 [Example 24, 3-(3,4-Dimethoxybenzoyl)-1-(3,4-dimethoxyphenyl)-4-hydroxy-2-methoxycarbonyl-6,7,8-trimethoxynaphthalene]	11%	54%
2.07 µM	COC(=O)c1c(C(=O)c2ccc3ccccc3c2)c(O)c2cc(OC)c(OC)c(OC)c2c1-c1ccc(OC)c(OC)c1 [Example 25, 1-(3,4-Dimethoxyphenyl)-4-hydroxy-2-methoxycarbonyl-3-(2-naphthoyl)-6,7,8-trimethoxynaphthalene]	16%	59%

The remaining lines, values behind:

SMILES	IC50 [2]	inhibition in vivo at 0.12 % in diet [1, 3]	inhibition in vivo at 0.12 % in diet [1, 4]
COC(=O)c1c(C(=O)c2ccc(C(F)(F)F)cc2)c(O)c2cc(OC)c(OC)c(OC)c2c1-c1ccc(OC)cc1OC [Example 43, 1-(2,4-Dimethoxyphenyl)-4-hydroxy-2-methoxycarbonyl-3-[4-(trifluoromethyl)benzoyl]-6,7,8-trimethoxynaphthalene]	2.12 µM	15%	59%
COc1ccc(-c2c(C)c(C(=O)c3ccc(C(F)(F)F)cc3)c(O)c3cc(OC)c(OC)c(OC)c23)cc1OC [Example 62, 1-(3,4-dimethoxyphenyl)-4-hydroxy-2-methyl-3-[4-(trifluoromethyl)benzoyl]-6,7,8-trimethoxynaphthalene]	8.98 µM	27%	59%
CCC(=O)c1c(C(=O)OC)c(-c2ccc(OC)c(OC)c2)c2c(OC)c(OC)c(OC)c(OC)c2c1O [Example 73, 1-(3,4-dimethoxyphenyl)-3-(1-oxopropyl)-4-hydroxy-2-methoxycarbonyl-5,6,7,8-tetramethoxynaphthalene]	2.92 µM	13%	60%
CCC(CC)C(=O)c1c(C(=O)OC)c(-c2ccc(OC)c(OC)c2)c2cc3c(cc2c1O)OCO3 [Example 33, 1-(3,4-Dimethoxyphenyl)-3-(2-ethyl-1-oxobutyl)-4-hydroxy-2-methoxycarbonyl-6,7-(methylenedioxy)naphthalene]		19%	50%
CCC(CC)CC(=O)c1c(C(=O)OC)c(-c2ccc3c(c2)OCCO3)c2c(OC)c(OC)c(OC)cc2c1O [Example 60, 1-[3,4-(Ethylenedioxy)phenyl]-3-(3-ethyl-1-oxopentyl)-4-hydroxy-2-methoxycarbonyl-6,7,8-trimethoxynaphthalene]		6%	33%
COC(=O)c1c(C(=O)c2ccc(Cl)cc2)c(O)c2cc3c(cc2c1-c1ccc(OC)c(OC)c1)OCO3 [Example 34, 3-(4-Chlorobenzoyl)-1-(3,4-dimethoxyphenyl)-4-hydroxy-2-methoxycarbonyl-6,7-(methylenedioxy)naphthalene]		23%	53%
